Article PMC12352620, “Fragment-based discovery of dual ligand pharmacophores for lipid-sensing transcription factors for designed polypharmacology” (RSC Medicinal Chemistry, 2025)

Columns and labels:
Type in all cases: cell-based
[1] = molecular target: T1, PPARα (Homo sapiens, UniProt Q07869); assay: Gal4-hybrid reporter gene assay PPARα (selectivity); details: mean, n ≥ 3, Fig. 8
T1 construct: expressed in transfected cells; host or cells: HEK293T
T1 sequence (Q07869 167-468 limits assumed): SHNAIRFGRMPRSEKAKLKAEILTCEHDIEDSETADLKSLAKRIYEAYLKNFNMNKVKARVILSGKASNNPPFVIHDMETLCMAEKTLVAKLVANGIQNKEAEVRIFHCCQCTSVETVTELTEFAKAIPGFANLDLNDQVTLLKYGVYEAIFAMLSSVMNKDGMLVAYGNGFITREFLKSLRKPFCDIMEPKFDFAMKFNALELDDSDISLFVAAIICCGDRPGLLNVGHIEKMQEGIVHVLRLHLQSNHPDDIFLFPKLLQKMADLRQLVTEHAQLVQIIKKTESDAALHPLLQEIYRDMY
Experimental: (§1) NR modulation was determined as described previously[45] in Gal4 hybrid reporter gene assays in HEK293T cells (German Collection of Microorganisms and Cell Culture GmbH, DSMZ) using pFR-Luc (Stratagene, La Jolla, CA, USA; reporter), pRL-SV40 (Promega, Madison, WI, USA; internal control) and the hybrid receptor clones pFA-CMV-hTHRα-LBD,[46] pFA-CMV-hPPARγ-LBD,[47] pFA-CMV-hFXR-LBD,[48] and pFA-CMV-hRXRα-LBD,[49] coding for the hinge region and ligand binding domain of the canonical isoform of the respective NR. Cells were cultured in Dulbecco's modified Eagle's medium (DMEM), high glucose supplemented with 10% fetal calf serum (FCS), sodium pyruvate (1 mM), penicillin (100 U mL^−1), and streptomycin (100 μg mL^−1) at 37 °C and 5% CO2 and seeded in 96-well plates (3 × 10^4 cells per well). After 24 h, medium was changed to Opti-MEM without supplements and cells were transiently transfected using Lipofectamine LTX reagent (Invitrogen, Carlsbad, CA, USA) according to the manufacturer's protocol. Five hours after transfection, cells were incubated with the test compounds in Opti-MEM supplemented with penicillin (100 U mL^−1), streptomycin (100 μg mL^−1) and 0.1% DMSO for 16 h before luciferase activity was measured using the Dual-Glo Luciferase Assay System (Promega) according to the manufacturer's protocol on a Tecan Spark luminometer (Tecan Deutschland GmbH, Crailsheim, Germany). Firefly luminescence was divided by Renilla luminescence and multiplied by 1000 resulting in relative light units (RLU) to normalize for transfection efficiency and cell growth. Fold activation was obtained by dividing the mean RLU of test compound by the mean RLU of the untreated control. All samples were tested in at least three biologically independent experiments in duplicates. For dose–response curve fitting and calculation of EC50 values, the equation “[agonist] vs. response − variable slope (four parameters)” was used in GraphPad Prism (version 7.00, GraphPad Software, La Jolla, CA, USA). For selectivity profiling, the hybrid reporter gene assay was performed with Gal4 fusion receptor plasmids for RARα, PPARα, PPARδ, VDR, CAR and LXRα. The following reference agonists were used: triiodothyronine (1 μM, THR), all-trans retinoic acid (1 μM, RAR), GW7647 (1 μM, PPARα), pioglitazone (1 μM, PPARγ), L165041 (1 μM, PPARδ), calcitriol (1 μM, VDR), CITCO (1 μM, CAR), T0901317 (1 μM, LXR), GW4064 (1 μM, FXR), bexarotene (1 μM, RXR).

[2] = molecular target: T2, PPARγ (Homo sapiens, UniProt P37231); assay: Gal4-hybrid reporter gene assay PPARγ; details: n ≥ 3; for fold act. PPARγ: mean, Fig. 8; for EC50: HEK293T, Gal4-hybrid reporter, Inactive = tested 1–300 μM; for EC50 / max. fold activation PPARγ: mean ± S.E.M.; for max. fold activation PPARγ: maximum reporter activation vs DMSO (0.1%) treated cells
T2 construct: expressed in transfected cells; host or cells: HEK293T
T2 sequence (P37231 238-503 limits assumed): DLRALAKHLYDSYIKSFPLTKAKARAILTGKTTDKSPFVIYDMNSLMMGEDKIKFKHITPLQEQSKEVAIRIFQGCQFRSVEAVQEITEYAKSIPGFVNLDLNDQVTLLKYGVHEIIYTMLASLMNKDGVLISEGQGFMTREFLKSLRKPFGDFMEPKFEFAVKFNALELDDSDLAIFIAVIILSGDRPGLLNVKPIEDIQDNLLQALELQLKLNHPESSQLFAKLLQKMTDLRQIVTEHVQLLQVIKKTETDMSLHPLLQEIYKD
Experimental: as §1

[3] = molecular target: T3, RXRα (Homo sapiens, UniProt P19793); assay: Gal4-hybrid reporter gene assay RXRα; details: n ≥ 3; for fold act. RXRα: mean, Fig. 8; for EC50 / EC50 RXRα: HEK293T, Gal4-hybrid reporter, Inactive = tested 1–300 μM; for EC50 / max. fold activation RXRα / EC50 RXRα: mean ± S.E.M.; for max. fold activation RXRα: maximum reporter activation vs DMSO (0.1%) treated cells
T3 construct: expressed in transfected cells; host or cells: HEK293T
T3 sequence (P19793 227-458 limits assumed): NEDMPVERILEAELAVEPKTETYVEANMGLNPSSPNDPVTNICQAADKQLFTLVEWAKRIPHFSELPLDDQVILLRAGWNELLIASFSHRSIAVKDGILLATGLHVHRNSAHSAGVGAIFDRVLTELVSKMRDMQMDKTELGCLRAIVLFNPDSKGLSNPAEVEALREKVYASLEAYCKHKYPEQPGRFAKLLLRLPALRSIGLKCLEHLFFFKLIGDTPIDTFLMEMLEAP
Experimental: as §1

[4] = molecular target: T4, THRα (Homo sapiens, UniProt P10827); assay: Gal4-hybrid reporter gene assay THRα; details: n ≥ 3; for fold act. THRα: mean, Fig. 8; for EC50: HEK293T, Gal4-hybrid reporter, Inactive = tested 1–300 μM; for EC50 / max. fold activation THRα: mean ± S.E.M.; for max. fold activation THRα: maximum reporter activation vs DMSO (0.1%) treated cells
T4 construct: expressed in transfected cells; host or cells: HEK293T
T4 sequence (P10827 128-410 isoform P10827-2 limits assumed): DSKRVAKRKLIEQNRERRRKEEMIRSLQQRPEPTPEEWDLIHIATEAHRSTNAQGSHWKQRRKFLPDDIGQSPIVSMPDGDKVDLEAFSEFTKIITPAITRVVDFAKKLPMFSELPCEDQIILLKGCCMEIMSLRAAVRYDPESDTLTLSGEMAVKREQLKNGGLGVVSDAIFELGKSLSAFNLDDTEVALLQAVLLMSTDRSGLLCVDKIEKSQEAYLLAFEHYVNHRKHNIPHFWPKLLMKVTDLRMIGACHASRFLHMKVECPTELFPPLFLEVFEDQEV
Experimental: as §1

[5] = molecular target: T5, RARα (Homo sapiens, UniProt P10276); assay: Gal4-hybrid reporter gene assay RARα (selectivity); details: mean, n ≥ 3, Fig. 8
T5 construct: expressed in transfected cells; host or cells: HEK293T
T5 sequence (P10276 154-462 limits assumed): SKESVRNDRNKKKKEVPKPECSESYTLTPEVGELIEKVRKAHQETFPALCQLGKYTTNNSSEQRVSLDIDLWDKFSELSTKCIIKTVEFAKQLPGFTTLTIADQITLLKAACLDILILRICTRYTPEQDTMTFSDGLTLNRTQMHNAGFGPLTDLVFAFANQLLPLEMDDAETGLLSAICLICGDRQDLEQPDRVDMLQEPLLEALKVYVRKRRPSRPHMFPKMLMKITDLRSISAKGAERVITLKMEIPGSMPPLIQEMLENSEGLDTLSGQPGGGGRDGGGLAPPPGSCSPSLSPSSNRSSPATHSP
Experimental: as §1

| Compound | EC50 [2] | max. fold activation PPARγ [2] | EC50 [3] | max. fold activation RXRα [3] | EC50 [4] | max. fold activation THRα [4] | fold act. PPARα ([1]; 30 μM) | fold act. PPARγ ([2]; 30 μM) | fold act. RXRα ([3]; 30 μM) | EC50 RXRα [3] | fold act. THRα ([4]; 30 μM) | fold act. RARα ([5]; 30 μM) | further results |
| --- | --- | --- | --- | --- | --- | --- | --- | --- | --- | --- | --- | --- | --- |
| CCOc1ccc(-c2cc(C(=O)O)co2)cc1 [3.1, 5-(4-Ethoxyphenyl)furan-3-carboxylic acid] | 3 ± 1 µM | (6.4 ± 0.6-fold) | 0.9 ± 0.2 µM | (4.3 ± 0.5-fold) | 1.5 ± 0.2 µM | (3.7 ± 0.2-fold) | – | – | – | – | – | – | fold act. PPARα ([1]; 10 μM): 5 fold; fold act. PPARγ ([2]; 10 μM): 6 fold; fold act. RXRα ([3]; 10 μM): 4 fold; fold act. THRα ([4]; 10 μM): 4 fold; fold act. RARα ([5]; 10 μM): 6 fold |
| O=C(O)/C=C/C(=O)c1ccc(Cl)cc1Cl [4.6, (E)-4-Oxo-4-(2,4-dichlorophenyl)but-2-enoic acid] | 20 ± 5 µM | (13 ± 2-fold) | – | – | 43 ± 3 µM | (4.2 ± 0.3-fold) | 1 fold | 9 fold | 1 fold | Inactive | 2 fold | 1 fold | – |
| O=C(O)/C=C/C(=O)c1ccc(-c2ccccc2)cc1 [4.7, (E)-4-([1,1′-Biphenyl]-4-yl)-4-oxobut-2-enoic acid] | 18 ± 4 µM | (33.4 ± 2.7-fold) | – | – | 16 ± 7 µM | (14.8 ± 1.0-fold) | 6 fold | 32 fold | 1 fold | Inactive | 15 fold | 3 fold | – |
| O=C(O)/C=C/C(=O)c1ccc2ccccc2c1 [4.8, (E)-4-Oxo-4-(naphthalen-2-yl)but-2-enoic acid] | 27 ± 1 µM | (16.7 ± 0.5-fold) | 26 ± 3 µM | (4.5 ± 0.5-fold) | 39 ± 1 µM | (28 ± 1-fold) | – | – | – | – | – | – | fold act. PPARα ([1]; 40 μM): 7 fold; fold act. PPARγ ([2]; 40 μM): 18 fold; fold act. RXRα ([3]; 40 μM): 5 fold; fold act. THRα ([4]; 40 μM): 16 fold; fold act. RARα ([5]; 40 μM): 3 fold |
